From US20100056606A1, “Combination therapy using budesonide and antisense oligonucleotide targeted to IL4-receptor alpha” (ISIS Pharmaceuticals, Inc., priority 2005, published 2010)

How the values were obtained:
[1] = test system: OVA sensitized mice; experiment: Mouse model of allergic inflammation, chronic model (Penh, BAL cells, cytokines); type: in vivo; conditions: 2.5 mg/kg intraperitoneal, day 76
Method: In the mouse model of allergic inflammation, mice are sensitized and challenged with aerosolized chicken ovalbumin (OVA). Airway responsiveness is assessed by inducing airflow obstruction using a noninvasive method whereby unrestrained conscious OVA sensitized mice are placed into the main chamber of a plethysmograph (Buxco Electronics, Inc. Troy, N.Y.) and challenged with aerosolized methacholine. Pressure difference between this chamber and a reference chamber is used to extrapolate minute volume, breathing frequency and enhanced pause (Penh). Penh is a dimensionless parameter that is a function of total pulmonary airflow (i.e. the sum of the airflow in the upper and lower respiratory tracts) during the respiratory cycle of a mouse and is […] when airflow is greater. This parameter closely correlates with lung resistance as measured by traditional, invasive techniques using ventilated animals (Hamelmann et al., 1997, Am. J. Respir. Crit. Care Med. 156:766-775).
In the chronic model of allergic inflammation, mice are subjected to repeated intranasal OVA administration, producing a chronic inflammatory response. In this model, mice were sensitized by intraperitoneal injection with 100 μg of OVA on days 0 and 14 as in the previous models. OVA was administered at a dose of 500 μg on days 14, 27, 28, 29, 47, 61, 73, 74 and 75. Oligonucleotide, either ISIS 231894 or the mismatch control, was administered via the nose-only aerosol delivery exposure system at a dose of either 5 μg/kg or 500 μg/kg on days 31, 38, 45, 52, 59, 66 and 73. Dexamethasone, an anti-inflammatory agent, was administered by intraperitoneal injection at 2.5 mg/kg on days 47, 62, 73, 74 and 75. Analysis of endpoints was performed on day 76, except cytokines which were evaluated on day 62, 6 hours post OVA challenge. Endpoints were similar to those in the acute and rechallenge model, and included Penh (AHR), BAL inflammatory cell accumulation and cytokines and mucus accumulation.

[2] = test system: IL-4R alpha mRNA; experiment: Dose-dependent reduction of IL-4R alpha mRNA in human A549 cells; type: cell-based
Excerpt: The human lung carcinoma cell line A549 was obtained from the American Type Culture Collection (Manassas, Va.). A549 cells were routinely cultured in DMEM, high glucose (Invitrogen Life Technologies, Carlsbad, Calif.) supplemented with 10% fetal bovine serum, 100 units per ml penicillin, and 100 micrograms per ml streptomycin (Invitrogen Life Technologies, Carlsbad, Calif.). Cells were routinely passaged by trypsinization and dilution when they reached approximately 90% confluence. Cells were seeded into 96-well plates (Falcon-Primaria #3872) at a density of approximately 5000 cells/well for use in oligomeric compound transfection experiments.
When cells reach appropriate confluency, they are treated with oligonucleotide using Lipofectin™ as described. When cells reached 65-75% confluency, they were treated with oligonucleotide. Oligonucleotide was mixed with LIPOFECTIN™ Invitrogen Life Technologies, Carlsbad, Calif.) in Opti-MEM™-1 reduced serum medium (Invitrogen Life Technologies, Carlsbad, Calif.) to achieve the desired concentration of oligonucleotide and a LIPOFECTIN™ concentration of 2.5 or 3 […] oligonucleotide. This transfection mixture was incubated at room temperature for approximately 0.5 hours. For cells grown in 96-well plates, wells were washed once with 100 μL OPTI-MEM™-1 and then treated with 130 μL of the transfection mixture. Cells grown in 24-well plates or other standard tissue culture plates are treated similarly, using appropriate volumes of medium and oligonucleotide. […]
Quantitation of IL-4R alpha mRNA levels was accomplished by real-time quantitative PCR using the ABI PRISM™ 7600, 7700, or 7900 Sequence Detection System (PE-Applied Biosystems, Foster City, Calif.) according to manufacturer's instructions.
In both cell types, at concentrations of 100 nM, 50 nM and 25 nM, ASOs 1-4 each caused dose-dependent reduction of target (TL-4R alpha) mRNA and protein (as measured by flow cytometry) with no significant effect on total cellular mRNA, measured 24 hours following ASO treatment.

[3] = test system: MUC2 mRNA; experiment: Reduction of cytokine-induced MUC2 mRNA in human cells; type: cell-based; conditions: human A549 cells (table title)
[4] = mouse, in vivo
[5] = test system: OVA sensitized mice; experiment: Acute allergic inflammation mouse model with inhaled budesonide and/or ISIS 231894; type: in vivo
Method: In the mouse model of allergic inflammation, mice are sensitized and challenged with aerosolized chicken ovalbumin (OVA). Airway responsiveness is assessed by inducing airflow obstruction using a noninvasive method whereby unrestrained conscious OVA sensitized mice are placed into the main chamber of a plethysmograph (Buxco Electronics, Inc. Troy, N.Y.) and challenged with aerosolized methacholine. Pressure difference between this chamber and a reference chamber is used to extrapolate minute volume, breathing frequency and enhanced pause (Penh). Penh is a dimensionless parameter that is a function of total pulmonary airflow (i.e. the sum of the airflow in the upper and lower respiratory tracts) during the respiratory cycle of a mouse and is lower when airflow is greater.
For the acute model of allergic inflammation, mice were sensitized with 20 μg of alum-precipitated OVA was injected intraperitoneally on days 0 and 14. On days 24, 25 and 26, animals were exposed for 20 minutes to 1% OVA (in saline) by ultrasonic nebulization. On days 17, 19, 21, 24 and 26 animals were dosed with vehicle alone (saline), 1 μg/kg or 10 μg/kg of ISIS 231894 or the mismatch control oligonucleotide. Oligonucleotides or vehicle were suspended in 0.9% sodium chloride and delivered via inhalation using a nose-only aerosol delivery exposure system. A Lovelace nebulizer set at a flow rate of 1.4 liter per minute feeding into a total flow rate of 10 liters per minute was used to deliver the oligonucleotide. The exposure chamber was equilibrated with an oligonucleotide aerosol solution for 5 minutes before mice were placed in a restraint tube attached to the chamber. Restrained mice were treated for a total of 10 minutes. Analysis was performed on day 28.
The acute mouse model of allergic inflammation was used to determine if co-administration of inhaled IL-4R alpha antisense oligonucleotide would enhance the activity of inhaled budesonide, or reduce the dose required to produce anti-inflammatory activity. As described in Example 6, mice were sensitized with alum-precipitated OVA at day 0 and day 14 and nebulized with OVA in saline on days 24, 25 and 26. All mice were analyzed on day 28. Budesonide (0.3, 3, 30, and 300 μg/kg dissolved in PBS Containing 20% DMSO) was administered by nose-only aerosol exposure beginning on day 23 (24 and 20 hours before OVA exposure) and then daily through day 26, one hour prior to daily OVA exposure. The 30 μg/kg dose was also administered twice a day (bid) from day 23-26 as a separate group. As in Example 6, ISIS 231894 was administered by nose-only aerosol exposure at day 17, 19, 21, 23 and 26.
The effect of budesonide and/or ISIS 231894 treatment on AHR, BAL eosinophil infiltration and mucus accumulation (number of PAS-positive airways) were determined.

[6] = test system: OVA sensitized mice; experiment: Allergic rhinitis mouse model, intranasal administration; type: in vivo
Method: In a mouse model of allergic rhinitis, animals were sensitized intraperitoneally with alum-precipitated OVA on days 1, 5, 10 and 15. OVA diluted with saline was administered intranasally (25 μL of 500 μg OVA in each nare) daily, on days 18-22, 25-29, and 32-35. ISIS 231894 and budesonide were administered intranasally, with budesonide administration one hour before each intranasal OVA challenge. ISIS 231894 was administered on days 11, 13, 15, and one hour before each intranasal OVA challenge. Endpoints were evaluated on day 36 and included nasal mucus accumulation (nasal histopathology) nasal eosinophilia, neutrophilia (by nasal lavage analysis and microscopic eosinophil counts in epithelial tissue) and allergic symptoms (numbers of sneezes and nose-rubs observed over a fixed time period).

[7] = 30 μg/kg budesonide alone (Table 9)
[8] = Table 11, 35 μg/kg + 5% DMSO intranasal
[9] = Table 11, 35 μg/kg + 20% DMSO intranasal

In the case of `C[C@@H]1C[C@H]2[C@@H]3CCC4=CC(=O)C=C[C@]4(C)[C@@]3(F)[C@@H](O)C[C@]2(C)[C@@]1(O)C(=O)CO` [dexamethasone, reference compound], the “% Eosinophils (BAL)” value [1] is reported as 25% and the “% Neutrophils (BAL)” value [1] is reported as 58%.
With “ASO3: antisense oligonucleotide targeted to human IL-4R alpha; TGGAAAGGCTTATACCCCTC; SEQ ID NO: 25 (chemistry not given here)” the “IL-4R alpha mRNA” value ([2]; 25 nM) was 45 % of untreated control, the “IL-4R alpha mRNA” value ([2]; 50 nM) was 29 % of untreated control and the “IL-4R alpha mRNA” value ([2]; 100 nM) was 17 % of untreated control. For the same molecule, the “MUC-2 mRNA” value ([3]; 25 nM) was 86 % of untreated control, the “MUC-2 mRNA” value ([3]; 50 nM) was 63 % of untreated control and the “MUC-2 mRNA” value ([3]; 100 nM) was 39 % of untreated control. For the same molecule, the “macrophage infiltrate in the lung, in words” value [4] was “dose-related macrophage infiltrate was observed” and the “serum chemistry markers or lung morphology (histology), in words” value ([4]; ip) was “no change”.
In the case of `CCCC1O[C@@H]2C[C@H]3[C@@H]4CCC5=CC(=O)C=C[C@]5(C)[C@H]4[C@@H](O)C[C@]3(C)[C@]2(C(=O)CO)O1` (some centres unmarked) [budesonide], the “% Eosinophils (BAL)” value ([5]; 0.3 μg/kg inhaled (Table 8)) is reported as 41%, the “Penh (100 mg/mL methacholine)” value ([5]; 0.3 μg/kg inhaled (Table 8)) is reported as 4.75 and the “% Eosinophils (BAL)” value ([5]; 3 μg/kg inhaled (Table 8)) is reported as 32%. For the same molecule, the “Penh (100 mg/mL methacholine)” value ([5]; 3 μg/kg inhaled (Table 8)) was 4.5, the “% Eosinophils (BAL)” value ([5]; 30 μg/kg bid inhaled) was 20% and the “Penh (100 mg/mL methacholine)” value ([5]; 30 μg/kg bid inhaled) was 3.25. The “% Eosinophils (BAL)” value [5, 7] was 20%, the “PAS+ airways (mucus accumulation)” value [5, 7] was 18 and the “Penh (100 mg/mL methacholine)” value [5, 7] was 5.5. For the same molecule, the “% Eosinophils (BAL)” value ([5]; 30 μg/kg inhaled (Table 8)) was 21%, the “Penh (100 mg/mL methacholine)” value ([5]; 30 μg/kg inhaled (Table 8)) was 3.25 and the “% Eosinophils (BAL)” value ([5]; 300 μg/kg inhaled (Table 8)) was 15%. For the same molecule, the “Penh (100 mg/mL methacholine)” value ([5]; 300 μg/kg inhaled (Table 8)) was 3.75, the minimum effective dose ([5]; inhaled) was 0.03 mg/kg and the Nasal rubs ([6]; Table 10, 3.5 μg/kg intranasal) was 5 per 5 min. For the same molecule, the Sneezes ([6]; Table 10, 3.5 μg/kg intranasal) was 6 per 5 min, the “% Nasal lavage eosinophils” value ([6]; Table 10, 35 μg/kg intranasal) was 11% and the “% Nasal lavage neutrophils” value ([6]; Table 10, 35 μg/kg intranasal) was 28%. For the same molecule, the Nasal rubs ([6]; Table 10, 35 μg/kg intranasal) was 4.5 per 5 min, the Sneezes ([6]; Table 10, 35 μg/kg intranasal) was 2 per 5 min and the “% Nasal lavage eosinophils” value ([6]; Table 10, 350 μg/kg intranasal) was 4%. The “% Nasal lavage neutrophils” value ([6]; Table 10, 350 μg/kg intranasal) was 12%, the Nasal rubs ([6]; Table 10, 350 μg/kg intranasal) was 4 per 5 min and the Sneezes ([6]; Table 10, 350 μg/kg intranasal) was 3 per 5 min. For the same molecule, the “% Nasal lavage eosinophils” value ([6]; Table 10, 500 μg/kg intranasal) was 2%, the “% Nasal lavage neutrophils” value ([6]; Table 10, 500 μg/kg intranasal) was 6% and the Nasal rubs ([6]; Table 10, 500 μg/kg intranasal) was 2 per 5 min. For the same molecule, the Sneezes ([6]; Table 10, 500 μg/kg intranasal) was 2 per 5 min, the “% Nasal lavage eosinophils” value [6, 8] was 7% and the “% Nasal lavage neutrophils” value [6, 8] was 9%. The Nasal rubs [6, 8] was 0.6 per 5 min, the Sneezes [6, 8] was 2.8 per 5 min and the Tissue eosinophils [6, 8] was 174 per mm^2. The “% Nasal lavage eosinophils” value [6, 9] was 7%, the “% Nasal lavage neutrophils” value [6, 9] was 12% and the Nasal rubs [6, 9] was 1.2 per 5 min. It also gave a Sneezes [6, 9] of 5.8 per 5 min.
